Tests used:
[1] = target: T1, E. coli arabinose binding protein variant C64A/L298C, fluorophore conjugate (Escherichia coli, UniProt P02924, C87A/L321C); assay: Fluorimetric titration of fluorophore conjugates; conditions: allosteric site
T1 construct: initiator methionine (N); Gly-Ser-Gly-(His)n or Gly-Ser-(His)n (n = 5, 6 or 10) (C); made in house; host or cells: E. coli BL21-DE3
Source text: (§1) Molecular Cloning. […] Amplified products were cloned into one of the protein expression vectors pAED4 (Doering, “Functional and structural studies of a small f-actin binding domain” in Ph.D. thesis, Massachusetts Institute of Technology, 1992); pKK223-3 (Brosius & Holy, Proc. Natl. Acad. Sci. USA 81:6929-6933, 1984); or pET vectors (Studier et al., Meth. Enzymol. 185:60-89, 1990) (Novagen). N-terminal oligonucleotide primers were designed to clone only the processed periplasmic form, deleting the signal sequence. The C-terminal primer was designed to append the sequence Gly-Ser-Gly-(His)n or Gly-Ser-(His)n, where n=5, 6, or 10. Two tandem stop codons (TAATGA) follow the last His codon. […] Single amino acid substitutions were generated by overlapping PCR mutagenesis (Ho et al., Gene 77:51-59, 1989). All clones and mutations were confirmed by nucleotide sequencing. In the case of arabinose BP, the single cysteine in the wild type sequence was replaced by alanine to eliminate the possibility of reporter group conjugation to this thiol (Miller et al., J. Biol. Chem. 254:7521-7528, 1979). Additionally the sequence of Fe(III) BP was mutated by substitution of Glu57 with Asp to raise the Kd to a concentration range conveniently measured using Fe(III) citrate.
(§2) Fluorophore conjugation to cysteine-substituted bPBPs. Thiol-reactive fluorophores obtained from Molecular Probes (Eugene, Oreg.) were 5-iodoacetamidofluorescein (fluorescein); N-(1-pyrene) iodoacetamide (pyrene); N,N′-dimethyl-N-(iodoacetyl)-N′-(7-nitrobenz-2-oxa-1,3-diazol-4-yl)ethylenediamide (NBD); N-((2-(iodoacetoxy)ethyl)-N-methyl)amino-7-nitrobenz-2-oxa-1,3-diazole (NBDE); and 6-acryloyl-2-dimethylaminonaphthalene (acrylodan). The styryl and naphthyl dyes JPW4039, JPW4042, and JPW4045 (FIG. 3) were synthesized at the University of Connecticut. All fluorophore conjugation steps were typically carried out at room temperature. To protein at a concentration of 100 μM was added tris-(2-carboxyethyl)phosphine HCl to a five-fold molar excess to reduce intermolecular disulfide bonds. A thiol-reactive fluorophore (20 to 25 mM in acetonitrile or dimethyl sulfoxide) was added in small aliquots to a five-fold molar excess over protein. Conjugation proceeded in the dark at room temperature for 4 hours, or overnight at 4° C. Separation of protein from unreacted fluorophore was achieved by exhaustive dialysis or by size-exclusion chromatography. The efficiency of reporter group attachment was assessed by determination of unreacted thiol with Ellman's reagent (Ellman, Arch. Biochem. Biophys. 74:443-450, 1958) or by measuring the ratio of fluorophore to protein from absorbance spectra of the purified conjugate.
(§3) Fluorimetry. All measurements were conducted with an SLM Aminco-Bowman series 2 fluorimeter, with sample stirring at 25° C. Fluorescence emission spectra were acquired with excitation and emission slit widths of 4 and 8 nm, respectively. Photomultiplier tube potential was maintained between 400 and 800 volts. Protein concentrations were in the range of 50 to 1000 nM. Fluorophore-specific excitation was at the following approximate wavelengths: tryptophan, 290 nm; acrylodan, 390 nm; fluorescein, 485 nm; pyrene, 340 nm; NBD and NBDE, 490 nm; JPW4039, 485 nm; JPW4042, 470 nm; JPW4045, 470 nm.
(§4) Corrections were made for dilution of the protein and for background signal from buffer. Binding curves were fit to binding isotherms using equation 3 or 4, as appropriate.
(§5) Analyte affinity measurements. […] The emission wavelength monitored was that of maximum difference in intensity between the ligand-free and bound states. For each conjugate, fluorescence intensiometric observations were fit to a hyperbolic binding isotherm for a two-state model (Marvin et al., Proc. Natl. Acad. Sci. USA 94:4366-4371, 1997): […]

[2] = target: T2, E. coli arabinose binding protein variant C64A/L253C, fluorophore conjugate (Escherichia coli, UniProt P02924, C87A/L276C); assay: Fluorimetric titration of fluorophore conjugates
T2 construct: initiator methionine (N); Gly-Ser-Gly-(His)n or Gly-Ser-(His)n (n = 5, 6 or 10) (C); made in house; host or cells: E. coli BL21-DE3
Source text: as §1, §2, §3, §4, §5

[3] = target: T3, E. coli arabinose binding protein variant C64A/D257C, fluorophore conjugate (Escherichia coli, UniProt P02924, C87A/D280C); assay: Fluorimetric titration of fluorophore conjugates; conditions: allosteric site
T3 construct: initiator methionine (N); Gly-Ser-Gly-(His)n or Gly-Ser-(His)n (n = 5, 6 or 10) (C); made in house; host or cells: E. coli BL21-DE3
Source text: as §1, §2, §3, §4, §5

[4] = target: T4, E. coli arabinose binding protein variant C64A/F23C, fluorophore conjugate (Escherichia coli, UniProt P02924, C87A/F46C); assay: Fluorimetric titration of fluorophore conjugates; conditions: allosteric site
T4 construct: initiator methionine (N); Gly-Ser-Gly-(His)n or Gly-Ser-(His)n (n = 5, 6 or 10) (C); made in house; host or cells: E. coli BL21-DE3
Source text: as §1, §2, §3, §4, §5

[5] = target: T5, E. coli arabinose binding protein variant C64A/K301C, fluorophore conjugate (Escherichia coli, UniProt P02924, C87A/K324C); assay: Fluorimetric titration of fluorophore conjugates
T5 construct: initiator methionine (N); Gly-Ser-Gly-(His)n or Gly-Ser-(His)n (n = 5, 6 or 10) (C); made in house; host or cells: E. coli BL21-DE3
Source text: as §1, §2, §3, §4, §5

[6] = target: T6, E. coli arabinose binding protein variant C64A/K301C (Escherichia coli, UniProt P02924, C87A/K324C); assay: Arabinose affinity by tryptophan fluorescence
T6 construct: initiator methionine (N); Gly-Ser-Gly-(His)n or Gly-Ser-(His)n (n = 5, 6 or 10) (C); made in house; host or cells: E. coli BL21-DE3
Source text: (§6) Molecular Cloning. […] All clones and mutations were confirmed by nucleotide sequencing.
(§7) Cysteine point mutations were introduced by the PCR overlap method (Ho et al., Gene 77:51-59, 1989). Mutant proteins typically expressed as well as the wild type protein. […] In the case of Fe(III) BP, all mutations were constructed in the E57D background. […] This permitted straightforward determination of Fe(III) affinity by direct titration with Fe(III) citrate at nanomolar concentrations of Fe(III) BP.
(§8) The effect on dissociation constants is determined not only by the attachment site, but also by the nature of the attached fluorophore, as illustrated for arabinose BP. Dissociation constants for arabinose of the five cysteine-substitution mutants (all with the C64A mutation), measured by tryptophan fluorescence, are 5.0 μM (F23C), 3.2 μM (L253C), 3.4 μM (D257C), 7.6 μM (L298C), and 1.6 μM (K301C).

[7] = target: T7, E. coli arabinose binding protein variant C64A/L298C (Escherichia coli, UniProt P02924, C87A/L321C); assay: Arabinose affinity by tryptophan fluorescence
T7 construct: initiator methionine (N); Gly-Ser-Gly-(His)n or Gly-Ser-(His)n (n = 5, 6 or 10) (C); made in house; host or cells: E. coli BL21-DE3
Source text: as §6, §7, §8

[8] = target: T8, E. coli arabinose binding protein variant C64A/D257C (Escherichia coli, UniProt P02924, C87A/D280C); assay: Arabinose affinity by tryptophan fluorescence
T8 construct: initiator methionine (N); Gly-Ser-Gly-(His)n or Gly-Ser-(His)n (n = 5, 6 or 10) (C); made in house; host or cells: E. coli BL21-DE3
Source text: as §6, §7, §8

[9] = target: T9, E. coli arabinose binding protein variant C64A/L253C (Escherichia coli, UniProt P02924, C87A/L276C); assay: Arabinose affinity by tryptophan fluorescence
T9 construct: initiator methionine (N); Gly-Ser-Gly-(His)n or Gly-Ser-(His)n (n = 5, 6 or 10) (C); made in house; host or cells: E. coli BL21-DE3
Source text: as §6, §7, §8

[10] = target: T10, E. coli arabinose binding protein variant C64A/F23C (Escherichia coli, UniProt P02924, C87A/F46C); assay: Arabinose affinity by tryptophan fluorescence
T10 construct: initiator methionine (N); Gly-Ser-Gly-(His)n or Gly-Ser-(His)n (n = 5, 6 or 10) (C); made in house; host or cells: E. coli BL21-DE3
Source text: as §6, §7, §8

[11] = target: T11, E. coli arabinose binding protein C64A mutant (Escherichia coli, UniProt P02924, C87A); assay: Arabinose affinity of unconjugated arabinose BP C64A
T11 construct: initiator methionine (N); Gly-Ser-Gly-(His)n or Gly-Ser-(His)n (n = 5, 6 or 10) (C); made in house; host or cells: E. coli BL21-DE3
Source text: as §6, §7, §8

[12] = Acrylodan conjugate, allosteric site
[13] = JPW4039 conjugate, allosteric site

T2 sequence (P02924 24-329 C87A/L276C): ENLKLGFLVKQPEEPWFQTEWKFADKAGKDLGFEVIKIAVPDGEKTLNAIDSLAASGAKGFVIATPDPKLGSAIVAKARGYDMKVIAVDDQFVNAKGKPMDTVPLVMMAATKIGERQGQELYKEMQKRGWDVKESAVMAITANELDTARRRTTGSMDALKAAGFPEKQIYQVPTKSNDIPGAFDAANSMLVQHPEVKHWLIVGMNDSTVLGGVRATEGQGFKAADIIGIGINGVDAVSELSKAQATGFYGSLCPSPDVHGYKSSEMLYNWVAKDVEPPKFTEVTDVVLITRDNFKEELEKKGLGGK
T1 sequence (P02924 24-329 C87A/L321C): as the sequence (P02924 24-329 C87A/L276C) above, with C253L, L298C counted along it
T5 sequence (P02924 24-329 C87A/K324C): as the sequence (P02924 24-329 C87A/L276C) above, with C253L, K301C counted along it
T4 sequence (P02924 24-329 F46C/C87A): as the sequence (P02924 24-329 C87A/L276C) above, with F23C, C253L counted along it
T3 sequence (P02924 24-329 C87A/D280C): as the sequence (P02924 24-329 C87A/L276C) above, with C253L, D257C counted along it
T9 sequence (P02924 24-329 C87A/L276C): as the sequence (P02924 24-329 C87A/L276C) above
T7 sequence (P02924 24-329 C87A/L321C): as the sequence (P02924 24-329 C87A/L276C) above, with C253L, L298C counted along it
T6 sequence (P02924 24-329 C87A/K324C): as the sequence (P02924 24-329 C87A/L276C) above, with C253L, K301C counted along it
T10 sequence (P02924 24-329 F46C/C87A): as the sequence (P02924 24-329 C87A/L276C) above, with F23C, C253L counted along it
T8 sequence (P02924 24-329 C87A/D280C): as the sequence (P02924 24-329 C87A/L276C) above, with C253L, D257C counted along it
T11 sequence (P02924 24-329 C87A): as the sequence (P02924 24-329 C87A/L276C) above, with C253L counted along it

OC1OC[C@H](O)[C@H](O)[C@H]1O (some centres unmarked) [arabinose]
Kd ([1]; Acrylodan conjugate): 44 µM
Kd ([1]; JPW4039 conjugate): 70 µM
Kd ([1]; NBD conjugate): 56 µM
Kd [2, 12]: 0.69 µM
Kd ([2]; Fluoresecin conjugate, allosteric site): 48 µM
Kd [2, 13]: 165 µM
Kd ([2]; L253C-NBD conjugate): 775 µM
Kd ([2]; L253C-acrylodan conjugate): 0.7 µM
Kd ([2]; L253C-fluorescein conjugate): ~48 µM
Kd ([2]; NBD conjugate, allosteric site): 775 µM
Kd ([3]; Acrylodan conjugate): 56 µM
Kd ([3]; Fluorescein conjugate): 4 µM
Kd ([3]; JPW4039 conjugate): 90 µM
Kd ([3]; NBD conjugate): 32 µM
Kd ([4]; Acrylodan conjugate): 3.9 µM
Kd ([4]; Fluorescein conjugate): 3.2 µM
Kd ([4]; JPW4039 conjugate): 38 µM
Kd ([4]; NBD conjugate): 5 µM
Kd [5, 12]: 0.46 µM
Kd ([5]; Fluorescein conjugate, allosteric site): 24 µM
Kd [5, 13]: 77 µM
Kd ([5]; K301C-NBD conjugate): ~31 µM
Kd ([5]; NBD conjugate, allosteric site): 31 µM
Kd [6]: 1.6 µM
Kd [7]: 7.6 µM
Kd [8]: 3.4 µM
Kd [9]: 3.2 µM
Kd [10]: 5 µM
Kd [11]: ~2.2 µM
